Laboratory results published in paper PMC10400562, “Label-free measurement of antimicrobial peptide interactions with lipid vesicles and nanodiscs using microscale thermophoresis” (Scientific Reports, 2023).
Non-standard residues stand in square brackets, D forms with d. Residues, ends and D or L forms follow the SMILES beside them.

Legend:
[1] = Label-free MST, peptide binding to 100 nm vesicles; conditions: 2500 nM AMP; for Kd: label-free MST (Trp fluorescence), lipid 0–1.5 mM, 10 mM TRIS pH 7.4 100 mM NaCl, mean ± SD of triplicates, '>' = minimum value; for Vesicle KP, DMPC (MST) / Vesicle KP, DMPC/PG (MST): partition coefficient from initial fluorescence on MST instrument, TRIS pH 7.4, ± SD of triplicate fits, judged unreliable by authors; for Vesicle KP, DMPC (MST): hyperbolic fit after removal of deviant points; for Vesicle KP, DMPC/PG (MST): hyperbolic fit
Text: For KD evaluation by MST, FHot was registered during the temperature related intensity change (TRIC) phase of the MST trace (see “Methods”). The advantage of evaluating KD during the TRIC phase is that any potential effects of prolonged heating on the thermostability of the sample that may influence the binding can be avoided. The dose–response profile of MST response against lipid concentration for 1–5 largely follows a sigmoidal curve shape (Fig. 3A,B).
DMPC and DMPC:5% DMPG vesicles were prepared by solubilising a known weight of lipid in chloroform with a small amount of methanol to assist in the dissolution of the PG lipid head groups. The chloroform stock was dried in vacuo to produce a lipid film, which was further dried for additional 3 h. The lipid film was solubilised in 10 mM TRIS buffer (pH 7.4) containing 100 mM NaCl to yield a 20 mM milky lipid stock.
To produce the working vesicle stock, 1 mL of vesicle stock was extruded 20 times through a 0.1 µm filter using an Avanti Lipids mini-extruder. Vesicle size was confirmed using a Malvern Zetasizer Nano ZS (Malvern Panalytical Ltd, Malvern, United Kingdom).
(§1) All MST measurements were conducted on a NanoTemper Monolith NT. Labelfree instrument, using Monolith NT. Labelfree standard treated zero background capillaries.
(§2) A dilution series of vesicles/nanodiscs was prepared from 3 mM to 100 nM lipid concentrations, comprising 15 discrete samples, and an additional zero lipid sample, for a total of 16 lipid concentrations. Final MST samples were prepared as a combination of 25 µL lipid solution and 25 µL 5 µM peptide solution (Table S1 in the Supporting Information).
(§3) MST measurements were conducted with excitation power set to 15%, with the MST power set to high. Laser time settings were: 3 s pre-laser, 30 s on time, and 3 s after heating. FHot was taken from the T-jump period after 1.5 s and FCold taken in the second prior to IR laser activation. For the evaluation of KP, the initial fluorescence was taken as the value reported during the period before the application of the laser. The MST response and initial fluorescence were extracted directly as a text file for further processing in MATLAB.
(§4) In a typical binding experiment that yields a sigmoidal curve, the Hill equation can be fitted to yield KD:[66]6 y=y0+EMaxLipid^n/KDn+Lipid^n where y is the MST response, y0 is the MST response of the AMP in an aqueous solution (i.e., in the absence of lipids), n is the Hill coefficient, and EMax is the maximal effect of the tested substrate. The removal of outlying MST response points was necessary. Erroneous points were identified by poor MST trace shapes or higher than expected initial fluorescence that was absent in the other replicates or subsequent points, but otherwise no further treatment of data was necessary. In all instances the MST response was plotted against log lipid concentration in nM and fit to Eq. (6).
(§5) The Kp of a molecule can be determined experimentally by observing changes in fluorescent intensity in the presence of an increasing concentration of lipid, and fitting to Eq. (8)[43].8 I/Iaq=1+KpVmLipidIL/Iaq/1+KPVmLipid
(§6) In Eq. (8) the fluorescence intensity of the AMP (I) is normalised to the fluorescence intensity of the AMP in an aqueous environment (Iaq), Vm is the molar volume of the lipids and IL is the fluorescence intensity of the AMP in the lipidic environment. For Vm, the average molar volume of the lipid composition is used. In the case of the DMPC only environments it is taken as the Vm of DMPC (1.023 nm^3), and in the DMPC-DMPG mixture it is the weighted average relative to the composition used (Vm DMPG = 0.997 nm^3)[54].

[2] = Label-free MST, peptide binding to SMA-QA nanodiscs; conditions: for Kd: label-free MST, SMA-QA nanodiscs (cationic belt), 2500 nM AMP, Hill fit, mean ± SD of triplicates, '>' = minimum value; for SMA-QA KP, DMPC (MST) / SMA-QA KP, DMPC/PG (MST): partition coefficient from initial fluorescence on MST instrument, SMA-QA nanodiscs, hyperbolic fit, ± SD of triplicate fits
Experimental: The MST data for two nanodisc types, SMA and SMA-QA, were evaluated using the same methodology as the vesicle data, with FHot taken during the TRIC, and Fnorm plotted against log[lipid] and fit to Eq. (6).
The DMPC, and DMPC with 5% DMPG 21 mM vesicle stocks were used for the nanodisc preparation. The stocks were combined with an 8% SMA stock solution to yield a final SMA concentration of 1% for SMA nanodiscs. The stocks were combined with a 100 mg/mL SMA-QA stock to yield a final lipid:SMA-QA w/w ratio of 1:1.5. The combined SMA/SMA-QA and lipid mixture were incubated at room temperature overnight and purified by SEC. Fractions containing SMA/SMA-QA discs were concentrated using centrifugation filters. Total lipid concentration was determined by ^31P NMR (Figs. S4–S7). Nanodisc size was confirmed using a Malvern Zetasizer Nano ZS (Malvern Panalytical Ltd, Malvern, United Kingdom).
as §1, §2, §3, §4, §5, §6

[3] = SPR; KP from the fits; conditions: buffer
[4] = Vesicle; KP from the fits; conditions: buffer
[5] = Hill fit of Fnorm in TRIC phase, insufficient curve sampling, read-out: Vesicle KD, DMPC (MST)
[6] = Hill fit, read-out: Vesicle KD, DMPC/PG (MST)
[7] = read-out: SMA-QA KD, DMPC (MST)
[8] = read-out: SMA-QA KD, DMPC/PG (MST)

| Kd [1, 5] [µM] | Kd [1, 6] [µM] | Vesicle KP, DMPC (MST) [1] | Vesicle KP, DMPC/PG (MST) [1] | Kd [2, 7] [µM] | Kd [2, 8] [µM] | SMA-QA KP, DMPC (MST) [2] | SMA-QA KP, DMPC/PG (MST) [2] | membrane partition coefficient KP (KP x 10^3) ([3]; DMPC bilayer on SPR chip) | membrane partition coefficient KP (KP x 10^3) ([3]; DMPC/PG bilayer on SPR chip) | membrane partition coefficient KP (KP x 10^3) ([4]; DMPC vesicles (MST)) | membrane partition coefficient KP (KP x 10^3) ([4]; DMPC/PG vesicles (MST)) | SMILES |
| --- | --- | --- | --- | --- | --- | --- | --- | --- | --- | --- | --- | --- |
| 21 ± 3 | 10 ± 5 | 7.24 ± 1.73 × 10^3 | 7.73 ± 1.58 × 10^3 | 142 ± 17 | 40 ± 5 | 7.07 ± 1.78 × 10^3 | 7.63 ± 1.89 × 10^3 | 6.65 ± 0.80 x10^3 | 12.71 ± 0.16 x10^3 | 7.24 ± 1.73 x10^3 | 7.73 ± 1.58 x10^3 | N=C(N)NCCC[C@@H]1NC(=O)[C@H](CCCNC(=N)N)NC(=O)[C@H](Cc2c[nH]c3ccccc23)NC(=O)[C@H](Cc2c[nH]c3ccccc23)NC(=O)[C@H](Cc2c[nH]c3ccccc23)NC(=O)[C@H](CCCNC(=N)N)NC1=O [compound 1] (cyclo(WWWRRR)) |
| 73 ± 53 | 24 ± 7 | 7.08 ± 2.32 × 10^3 | 16.97 ± 3.83 × 10^3 | > 541 | > 615 | 36.55 ± 11.82 × 10^3 | 12.62 ± 4.16 × 10^3 | 1.30 ± 0.09 x10^3 | 3.16 ± 0.15 x10^3 | 7.08 ± 2.32 x10^3 | 16.97 ± 3.83 x10^3 | N=C(N)NCCC[C@@H]1NC(=O)[C@H](Cc2c[nH]c3ccccc23)NC(=O)[C@H](CCCNC(=N)N)NC(=O)[C@H](Cc2c[nH]c3ccccc23)NC(=O)[C@H](CCCNC(=N)N)NC(=O)[C@H](Cc2c[nH]c3ccccc23)NC1=O [compound 2] (cyclo(WRWRWR)) |
| 28 ± 3 | 17 ± 13 | 2.55 ± 0.89 × 10^3 | 11.05 ± 4.49 × 10^3 | 267 ± 47 | 145 ± 55 | 9.16 ± 2.86 × 10^3 | 4.93 ± 0.81 × 10^3 | 2.53 ± 0.08 x10^3 | 5.16 ± 0.34 x10^3 | 2.55 ± 0.89 x10^3 | 11.05 ± 4.49 x10^3 | NCCCC[C@@H]1NC(=O)[C@H](CCCCN)NC(=O)[C@H](Cc2c[nH]c3ccccc23)NC(=O)[C@H](Cc2c[nH]c3ccccc23)NC(=O)[C@H](Cc2c[nH]c3ccccc23)NC(=O)[C@H](CCCCN)NC1=O [compound 3] (cyclo(WWWKKK)) |
| 282 ± 58 | 112 ± 29 | 8.56 ± 7.41 × 10^3 | 14.90 ± 4.84 × 10^3 | > 713 |  | 6.15 ± 6.54 × 10^3 | 3.23 ± 1.87 × 10^3 | 0.53 ± 0.01 x10^3 | 0.63 ± 0.03 x10^3 | 8.56 ± 7.41 x10^3 | 14.90 ± 4.84 x10^3 | NCCCC[C@@H]1NC(=O)[C@H](Cc2c[nH]c3ccccc23)NC(=O)[C@H](CCCCN)NC(=O)[C@H](Cc2c[nH]c3ccccc23)NC(=O)[C@H](CCCCN)NC(=O)[C@H](Cc2c[nH]c3ccccc23)NC1=O [compound 4] (cyclo(WKWKWK)) |
| > 670 | > 650 | 3.10 ± 2.17 × 10^3 | 1.47 ± 0.07 × 10^3 |  | > 1000 | 17.12 ± 12.90 × 10^3 | 3.35 ± 0.57 × 10^3 | 0.28 ± 0.01 x10^3 |  | 3.10 ± 2.17 x10^3 | 1.47 ± 0.07 x10^3 | CC(C)C[C@@H]1NC(=O)[C@@H](CCCNC(=N)N)NC(=O)[C@H](CCCCN)NC(=O)[C@H](CC(N)=O)NC(=O)[C@@H](Cc2c[nH]c3ccccc23)NC(=O)[C@H](Cc2c[nH]c3ccccc23)NC1=O [compound 5] (cyclo(LW[dW]NK[dR])) |
